Assay results taken from PubChem BioAssay (NCI).
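Values below derive from 48-hour exposures of cells grown in 96-well plates, with endpoints linearly interpolated between the two concentrations bracketing the appropriate inhibition level. Definition used: TGI = concentration required for complete inhibition of growth.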

Experiments:
Assay in all cases: NCI-60 cell line screen, 48 h
OVCAR-8 ovarian = test system: OVCAR-8 ovarian
HS 578T breast = test system: HS 578T breast
NCI-H460 lung = test system: NCI-H460 lung
SN12C renal = test system: SN12C renal
T-47D breast = test system: T-47D breast
HCT-116 colon = test system: HCT-116 colon
U251 CNS = test system: U251 CNS
OVCAR-3 ovarian = test system: OVCAR-3 ovarian
MCF7 breast = test system: MCF7 breast
OVCAR-4 ovarian = test system: OVCAR-4 ovarian

Compound | TGI (OVCAR-8 ovarian) [µM] | TGI (HS 578T breast) [µM] | TGI (NCI-H460 lung) [µM] | TGI (SN12C renal) [µM] | TGI (T-47D breast) [µM] | TGI (HCT-116 colon) [µM] | TGI (U251 CNS) [µM] | TGI (OVCAR-3 ovarian) [µM] | TGI (MCF7 breast) [µM] | TGI (OVCAR-4 ovarian) [µM]
c1ccc2c(c1)-c1ccccc1C2NC1=NCCO1 | 57.2 | > 100 | 27.1 | > 100 | > 100 | 32.1 | > 100 | 67.8 | 60.8 | > 100
O=C(CC(C(=O)c1cccs1)c1ccc2c(c1)OCO2)c1ccccc1 (stereo not given) | > 100 | > 100 | > 100 | > 100 | > 100 | > 100 | > 100 | > 100 | > 100 | > 100
O=C(Nc1ccc(Cl)cc1)c1cc(S(=O)(=O)N2CCNNC2=O)c(S)cc1Cl | > 100 | > 100 | > 100 | > 100 | > 100 | > 100 | > 100 | > 100 | > 100 | > 100
N=c1oc2cc(O)ccc2cc1C(=O)Nc1cccc2ccccc12 | 18.3 | > 100 | 30.2 | 18.9 | 19.6 | 14.7 | 12.4 | > 27.9 | 17.8 | > 51.1
C[C@@H]1CC[C@@]2(C)[C@H](C)/C(=C\COC(=O)/C=C/c3ccc(O)c(O)c3)CC[C@@]12C | 24.1 | 32.8 | 13.5 | 17.1 | 34.7 | 14 | 17.8 | 21.6 | 15.2 | 19
CCCCCCCCCCCCCCCC(=O)OC1C(O)C(O)C(O)C(O)C12CO2 (stereo not given) | 57.5 | > 100 | > 100 | 34.5 | > 100 | > 100 | 39.2 | 73 | > 100 | > 100
CCOc1cc2c(cc1O)C(=O)C[C@@H]1[C@@H]2CC[C@]2(C)[C@@H](O)CC[C@@H]12 | 27.1 | > 12.4 | 12.4 | > 100 | > 100 | 38 | > 51.9 | 1.7 | > 100 | > 100
CN1CCc2c(sc3ncn(Nc4ccc(F)cc4)c(=N)c23)C1 | > 100 | > 100 | > 100 | > 100 | > 100 | > 100 | > 100 | > 100 | > 100 | > 100
CCN(CC)CCSc1c(C(C)=O)c(=O)n(-c2ccccc2)c(=S)n1-c1ccccc1 | 10.9 | > 93.4 | 50.1 | 31.6 | 8.36 | 6.09 | 33.1 | 8.79 | 8.45 | 29
CN(Cc1cnc2nc(N)nc(N)c2n1)c1ccc(C(=O)NCCCC(=O)O)cc1 | > 100 | > 100 | > 100 | > 100 | > 100 | > 100 | > 100 | > 100 | > 100 | > 100
NC1NCCC(=O)N1CCc1c[nH]c2ccccc12 (stereo not given) | 89.1 | 55.2 | 31.2 | 67.6 | > 100 | 26.5 | > 100 | 48.4 | 29.2 | 80.7
CN(/N=C/C=N/N(C)C1=NCCN1)C1=NCCN1 | > 100 | > 100 | > 100 | > 100 | > 100 | > 100 | > 100 | > 100 | > 100 | > 100
C=C(C)COc1cc(NC(=S)OC(C)C)ccc1Cl | 30.7 | 49.9 | 30.8 | 30.6 | 26.8 | 28.4 | 30.8 | 29.6 | 29.3 | 28.3
COc1ccc2nc3cc(Cl)ccc3c(NCCCCCC(=O)NC(COc3ccc4ccc5cccnc5c4n3)COc3ccc4ccc5cccnc5c4n3)c2c1 | > 100 | 73.9 | 19.1 | 31.6 | 40.1 | 23.5 | 26.7 | > 100 | 15.1 | 99.8
Cc1cc(N=Cc2c(CO)cnc(C)c2O)c(N=Cc2c(CO)cnc(C)c2O)cc1C | > 100 | > 100 | > 100 | > 100 | > 100 | > 100 | > 100 | > 100 | > 100 | > 100
